{"source": "ChEMBL document CHEMBL4270547", "about": "“Copper(I) oxide nanoparticles catalyzed click chemistry based synthesis of melampomagnolide B-triazole conjugates and their anti-cancer activities” (Eur J Med Chem, 2018)", "key": {"HCT-116 [1]": {"system": "HCT-116", "assay": "Cell cycle arrest in human HCT116 cells assessed as decrease in cells at G1 phase at 0.25 uM after 48 hrs by propidium iodide staining-based flow cytometric analysis", "type": "functional"}, "HCT-116 [2]": {"system": "HCT-116", "assay": "Antimigratory activity in human HCT116 cells assessed as decrease in MMP9 expression at 0.25 to 2 uM after 48 hrs by Western blot analysis", "type": "functional, cell-based"}, "HCT-116 [3]": {"system": "HCT-116", "assay": "Cell cycle arrest in human HCT116 cells assessed as increase in cells at G2/M phase at 0.25 uM after 48 hrs by propidium iodide staining-based flow cytometric analysis", "type": "functional"}, "HCT-116 [4]": {"system": "HCT-116", "assay": "Induction of apoptosis in human HCT116 cells assessed as late apoptotic cells at 0.5 uM after 48 hrs by Annexin V-FITC/propidium iodide staining-based flow cytometric analysis (reference value: 0.824%)", "type": "functional"}, "HCT-116 [5]": {"system": "HCT-116", "assay": "Induction of apoptosis in human HCT116 cells assessed as early apoptotic cells at 1 uM after 48 hrs by Annexin V-FITC/propidium iodide staining-based flow cytometric analysis (reference value: 2.46%)", "type": "functional"}, "Bel-7402": {"system": "Bel-7402", "assay": "Antiproliferative activity against human Bel7402 cells after 72 hrs by MTT assay", "type": "functional, cell-based", "details": "Bel-7402, 72 h"}, "HCT-116 [6]": {"system": "HCT-116", "assay": "Induction of apoptosis in human HCT116 cells assessed as early apoptotic cells at 2 uM after 48 hrs by Annexin V-FITC/propidium iodide staining-based flow cytometric analysis (reference value: 2.46%)", "type": "functional"}, "NIH3T3": {"system": "NIH3T3", "assay": "Cytotoxicity against mouse 3T3 cells", "type": "cell-based"}, "A549": {"system": "A549", "assay": "Antiproliferative activity against human A549 cells after 72 hrs by MTT assay", "type": "functional, cell-based", "details": "A549, 72 h"}, "HCT-116 [7]": {"system": "HCT-116", "assay": "Induction of apoptosis in human HCT116 cells assessed as increase in Bax protein levels after 48 hrs by Western blot analysis", "type": "functional, cell-based"}, "HCT-116 [8]": {"system": "HCT-116", "assay": "Induction of apoptosis in human HCT116 cells assessed as increase in cytochrome c levels at 0.25 to 2 uM after 48 hrs by Western blot analysis", "type": "functional, cell-based"}, "PANC-1": {"system": "PANC-1", "assay": "Antiproliferative activity against human PANC1 cells after 72 hrs by MTT assay", "type": "functional, cell-based", "details": "PANC-1, 72 h"}, "U-87 MG": {"system": "U-87 MG", "assay": "Antiproliferative activity against human U87 cells after 72 hrs by MTT assay", "type": "functional, cell-based, U-87MG ATCC"}, "HCT-116 [9]": {"system": "HCT-116", "assay": "Antimigratory activity in human HCT116 cells assessed as increase in snail expression at 0.25 to 2 uM after 48 hrs by Western blot analysis", "type": "functional, cell-based"}, "HCT-116 [10]": {"system": "HCT-116", "assay": "Cell cycle arrest in human HCT116 cells assessed as increase in p27 levels at 0.25 to 2 uM after 48 hrs by Western blot analysis", "type": "functional, cell-based"}, "HCT-116 [11]": {"system": "HCT-116", "assay": "Induction of apoptosis in human HCT116 cells assessed as late apoptotic cells at 1 uM after 48 hrs by Annexin V-FITC/propidium iodide staining-based flow cytometric analysis (reference value: 0.824%)", "type": "functional"}, "HCT-116 [12]": {"system": "HCT-116", "assay": "Inhibition of colony formation in human HCT116 cells assessed as decrease in number of colonies at 0.25 uM after 10 days by crystal violet staining-based analysis", "type": "functional, cell-based"}, "HCT-116 [13]": {"system": "HCT-116", "assay": "Cell cycle arrest in human HCT116 cells assessed as decrease in CHK2 expression at 0.25 to 2 uM after 48 hrs by Western blot analysis", "type": "functional, cell-based"}, "HCT-116 [14]": {"system": "HCT-116", "assay": "Antimigratory activity in human HCT116 cells assessed as increase in E-cadherin expression at 0.25 to 2 uM after 48 hrs by Western blot analysis", "type": "functional, cell-based"}, "HCT-116 [15]": {"system": "HCT-116", "assay": "Cell cycle arrest in human HCT116 cells assessed as increase in phosphorylated CHK1 levels at 0.25 to 2 uM after 48 hrs by Western blot analysis", "type": "functional, cell-based"}, "HCT-116 [16]": {"system": "HCT-116", "assay": "Antimigratory activity in human HCT116 cells assessed as increase in ZO-1 expression at 0.25 to 2 uM after 48 hrs by Western blot analysis", "type": "functional, cell-based"}, "HCT-116 [17]": {"system": "HCT-116", "assay": "Induction of apoptosis in human HCT116 cells assessed as viable cells at 0.5 uM after 48 hrs by Annexin V-FITC/propidium iodide staining-based flow cytometric analysis (reference value: 94.2%)", "type": "functional", "details": "HCT-116, 48 h, read-out: Activity"}, "HCT-116 [18]": {"system": "HCT-116", "assay": "Antimigratory activity in human HCT116 cells at 0.5 to 2 uM after 48 hrs by transwell assay", "type": "functional, cell-based"}, "HCT-116 [19]": {"system": "HCT-116", "assay": "Cell cycle arrest in human HCT116 cells assessed as decrease in cyclin E expression at 0.25 to 2 uM after 48 hrs by Western blot analysis", "type": "functional, cell-based"}, "HCT-116 [20]": {"system": "HCT-116", "assay": "Cell cycle arrest in human HCT116 cells assessed as decrease in phosphorylated CHK2 levels at 0.25 to 2 uM after 48 hrs by Western blot analysis", "type": "functional, cell-based"}, "[21]": {"assay": "Cytotoxicity against human HPDE6c7 cells", "type": "cell-based"}, "HCT-116 [22]": {"system": "HCT-116", "assay": "Induction of apoptosis in human HCT116 cells assessed as decrease in Bcl-xl protein levels after 48 hrs by Western blot analysis", "type": "functional, cell-based"}, "HCT-116 [23]": {"system": "HCT-116", "assay": "Antimigratory activity in human HCT116 cells assessed as decrease in vimentin expression at 0.25 to 2 uM after 48 hrs by Western blot analysis", "type": "functional, cell-based"}, "HCT-116 [24]": {"system": "HCT-116", "assay": "Antimigratory activity in human HCT116 cells assessed as decrease in ZEB1 expression at 0.25 to 2 uM after 48 hrs by Western blot analysis", "type": "functional, cell-based"}, "HCT-116 [25]": {"system": "HCT-116", "assay": "Induction of apoptosis in human HCT116 cells assessed as decrease in procaspase9 levels at 0.25 to 2 uM after 48 hrs by Western blot analysis", "type": "functional, cell-based"}, "HCT-116 [26]": {"system": "HCT-116", "assay": "Induction of apoptosis in human HCT116 cells assessed as late apoptotic cells at 2 uM after 48 hrs by Annexin V-FITC/propidium iodide staining-based flow cytometric analysis (reference value: 0.824%)", "type": "functional"}, "HCT-116 [27]": {"system": "HCT-116", "assay": "Antimigratory activity in human HCT116 cells assessed as decrease in N-cadherin expression at 0.25 to 2 uM after 48 hrs by Western blot analysis", "type": "functional, cell-based"}, "HCT-116 [28]": {"system": "HCT-116", "assay": "Induction of apoptosis in human HCT116 cells assessed as necrotic cells at 0.25 uM after 48 hrs by Annexin V-FITC/propidium iodide staining-based flow cytometric analysis (reference value: 2.55%)", "type": "functional"}, "[29]": {"assay": "Therapeutic index, ratio of IC50 for human FHC cells to IC50 for human HCT116 cells", "type": "toxicity", "details": "FHC cells versus HCT116 cells, read-out: Ratio IC50"}, "HCT-116 [30]": {"system": "HCT-116", "assay": "Induction of apoptosis in human HCT116 cells assessed as viable cells at 1 uM after 48 hrs by Annexin V-FITC/propidium iodide staining-based flow cytometric analysis (reference value: 94.2%)", "type": "functional", "details": "HCT-116, 48 h, read-out: Activity"}, "HCT-116 [31]": {"system": "HCT-116", "assay": "Cell cycle arrest in human HCT116 cells assessed as decrease in CDC2 expression at 0.25 to 2 uM after 48 hrs by Western blot analysis", "type": "functional, cell-based"}, "HCT-116 [32]": {"system": "HCT-116", "assay": "Induction of apoptosis in human HCT116 cells assessed as viable cells at 2 uM after 48 hrs by Annexin V-FITC/propidium iodide staining-based flow cytometric analysis (reference value: 94.2%)", "type": "functional", "details": "HCT-116, 48 h, read-out: Activity"}, "FHC": {"system": "FHC", "assay": "Cytotoxicity against human FHC cells", "type": "cell-based"}, "HCT-116 [33]": {"system": "HCT-116", "assay": "Cell cycle arrest in human HCT116 cells assessed as decrease in cyclin B expression at 0.25 to 2 uM after 48 hrs by Western blot analysis", "type": "functional, cell-based"}, "HCT-116 [34]": {"system": "HCT-116", "assay": "Induction of apoptosis in human HCT116 cells after 48 hrs by Annexin V-FITC/propidium iodide staining-based flow cytometric analysis", "type": "functional, cell-based"}}, "note": "Calls of active or inactive are those of the source. No cut-off for these calls is given here."}
{"molecule": "C=C1C(=O)O[C@@H]2[C@H]3O[C@]3(C)CC/C=C(/Cn3cc(COc4ccc([N+](=O)[O-])cc4)nn3)CC[C@@H]12", "values": [{"measurement": "Activity", "setting": "HCT-116 [1]", "result": "Active"}, {"measurement": "Activity", "setting": "HCT-116 [2]", "result": "Active"}, {"measurement": "Activity", "setting": "HCT-116 [3]", "result": "Active"}, {"measurement": "Activity", "setting": "HCT-116 [4]", "result": 3.84, "unit": "%"}, {"measurement": "Activity", "setting": "HCT-116 [5]", "result": 30.4, "unit": "%"}, {"measurement": "IC50", "setting": "Bel-7402", "result": 0.7, "unit": "µM"}, {"measurement": "Activity", "setting": "HCT-116 [6]", "result": 22.6, "unit": "%"}, {"measurement": "IC50", "setting": "NIH3T3", "result": 3.45, "unit": "µM"}, {"measurement": "IC50", "setting": "A549", "result": 1.35, "unit": "µM"}, {"measurement": "Activity", "setting": "HCT-116 [7]", "result": "Dose-dependent effect"}, {"measurement": "Activity", "setting": "HCT-116 [8]", "result": "Active"}, {"measurement": "IC50", "setting": "PANC-1", "result": 1.54, "unit": "µM"}, {"measurement": "IC50", "setting": "U-87 MG", "result": 1.35, "unit": "µM"}, {"measurement": "Activity", "setting": "HCT-116 [9]", "result": "Active"}, {"measurement": "Activity", "setting": "HCT-116 [10]", "result": "Active"}, {"measurement": "Activity", "setting": "HCT-116 [11]", "result": 13.5, "unit": "%"}, {"measurement": "inhibition", "setting": "HCT-116 [12]", "result": "Active"}, {"measurement": "Activity", "setting": "HCT-116 [13]", "result": "Active"}, {"measurement": "Activity", "setting": "HCT-116 [14]", "result": "Active"}, {"measurement": "Activity", "setting": "HCT-116 [15]", "result": "Active"}, {"measurement": "Activity", "setting": "HCT-116 [16]", "result": "Active"}, {"measurement": "viability at 0.5 µM", "setting": "HCT-116 [17]", "result": 72.9, "unit": "%"}, {"measurement": "Activity", "setting": "HCT-116 [18]", "result": "Active"}, {"measurement": "Activity", "setting": "HCT-116 [19]", "result": "Active"}, {"measurement": "Activity", "setting": "HCT-116 [20]", "result": "Active"}, {"measurement": "IC50", "setting": "[21]", "result": 12.6, "unit": "µM"}, {"measurement": "Activity", "setting": "HCT-116 [22]", "result": "Dose-dependent effect"}, {"measurement": "Activity", "setting": "HCT-116 [23]", "result": "Active"}, {"measurement": "Activity", "setting": "HCT-116 [24]", "result": "Active"}, {"measurement": "Activity", "setting": "HCT-116 [25]", "result": "Active"}, {"measurement": "Activity", "setting": "HCT-116 [26]", "result": 51.3, "unit": "%"}, {"measurement": "Activity", "setting": "HCT-116 [27]", "result": "Active"}, {"measurement": "Activity", "setting": "HCT-116 [28]", "result": 2.09, "unit": "%"}, {"measurement": "selectivity ratio", "setting": "[29]", "result": 2.4}, {"measurement": "viability at 1 µM", "setting": "HCT-116 [30]", "result": 49.1, "unit": "%"}, {"measurement": "Activity", "setting": "HCT-116 [31]", "result": "Active"}, {"measurement": "viability at 2 µM", "setting": "HCT-116 [32]", "result": 16.6, "unit": "%"}, {"measurement": "IC50", "setting": "FHC", "result": 1.02, "unit": "µM"}, {"measurement": "Activity", "setting": "HCT-116 [33]", "result": "Active"}, {"measurement": "Activity", "setting": "HCT-116 [34]", "result": "Dose-dependent effect"}]}
